The term IC50 denotes the point on the concentration scale where inhibition reaches its midpoint. Higher therefore signals weaker potency.

This experiment has as its target T1, monoglyceride lipase (MGLL) (Homo sapiens, UniProt Q99685).
T1 construct: enzyme source only in Supplementary section D
T1 sequence (Q99685 1-303): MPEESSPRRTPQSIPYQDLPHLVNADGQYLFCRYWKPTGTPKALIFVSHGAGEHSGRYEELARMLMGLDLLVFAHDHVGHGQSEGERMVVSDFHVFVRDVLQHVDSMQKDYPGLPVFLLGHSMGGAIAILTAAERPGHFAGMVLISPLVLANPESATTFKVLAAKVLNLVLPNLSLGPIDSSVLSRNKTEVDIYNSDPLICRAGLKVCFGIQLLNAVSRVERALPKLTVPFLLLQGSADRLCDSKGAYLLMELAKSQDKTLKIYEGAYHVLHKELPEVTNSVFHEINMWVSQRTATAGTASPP
The experiment in a line: natural substrate assay, residual MGLL activity. The note with it: enzyme preparation and conditions only in Supplementary section D.
The compound `O=C(N1CCCC(c2ccc(F)cc2)C1)n1nnc2ccccc21` (stereo not drawn) [compound 2] displayed an IC50 of around 100 µM.

Consider `O=C(c1nccs1)N1CCN(C(c2ccccc2)c2ccccc2)CC1` [compound 3], for which the IC50 is around 100 µM.

`O=C(OC(C(F)(F)F)C(F)(F)F)N1CCN(C2CCCCC2)CC1` [compound 1, Compound 1] came in with an IC50 of 1 µM.

These data come from article PMC11954305, “Generate what you can make: achieving in-house synthesizability with readily available resources in de novo drug design” (Journal of Cheminformatics, 2025).
